According to ChEMBL document CHEMBL3603800, “Novel methyl substituted 1-(5,6-dihydro-[1,2,4]triazolo[4,3-a]pyrazin-7(8H)-yl)methanones are P2X7 antagonists” (Bioorg Med Chem Lett, 2015):
In brackets after ≈: the same amount, converted by molar mass. Blank lines part the entries; values can stand above or below the compound they belong to.

What was measured:
Rattus norvegicus [1] = assay: Ex-vivo P2X7 receptor occupancy in Sprague-Dawley rat brain assessed as inhibition of [3H]A804598 binding at 30 mg/kg, po after 2 hrs by autoradiographic analysis; assay type: functional
Rattus norvegicus [2] = assay: Ex-vivo P2X7 receptor occupancy in Sprague-Dawley rat brain assessed as inhibition of [3H]A804598 binding at 30 mg/kg, po after 0.5 hrs by autoradiographic analysis; assay type: functional
[3] = target: Voltage-gated inwardly rectifying potassium channel KCNH2 (Homo sapiens, UniProt Q12809); assay: Displacement of [3H]-astemizole from human ERG channel expressed in HEK293 cells by radioligand competition binding assay; assay type: cell-based
Chain of Voltage-gated inwardly rectifying potassium channel KCNH2 (Q12809 whole entry): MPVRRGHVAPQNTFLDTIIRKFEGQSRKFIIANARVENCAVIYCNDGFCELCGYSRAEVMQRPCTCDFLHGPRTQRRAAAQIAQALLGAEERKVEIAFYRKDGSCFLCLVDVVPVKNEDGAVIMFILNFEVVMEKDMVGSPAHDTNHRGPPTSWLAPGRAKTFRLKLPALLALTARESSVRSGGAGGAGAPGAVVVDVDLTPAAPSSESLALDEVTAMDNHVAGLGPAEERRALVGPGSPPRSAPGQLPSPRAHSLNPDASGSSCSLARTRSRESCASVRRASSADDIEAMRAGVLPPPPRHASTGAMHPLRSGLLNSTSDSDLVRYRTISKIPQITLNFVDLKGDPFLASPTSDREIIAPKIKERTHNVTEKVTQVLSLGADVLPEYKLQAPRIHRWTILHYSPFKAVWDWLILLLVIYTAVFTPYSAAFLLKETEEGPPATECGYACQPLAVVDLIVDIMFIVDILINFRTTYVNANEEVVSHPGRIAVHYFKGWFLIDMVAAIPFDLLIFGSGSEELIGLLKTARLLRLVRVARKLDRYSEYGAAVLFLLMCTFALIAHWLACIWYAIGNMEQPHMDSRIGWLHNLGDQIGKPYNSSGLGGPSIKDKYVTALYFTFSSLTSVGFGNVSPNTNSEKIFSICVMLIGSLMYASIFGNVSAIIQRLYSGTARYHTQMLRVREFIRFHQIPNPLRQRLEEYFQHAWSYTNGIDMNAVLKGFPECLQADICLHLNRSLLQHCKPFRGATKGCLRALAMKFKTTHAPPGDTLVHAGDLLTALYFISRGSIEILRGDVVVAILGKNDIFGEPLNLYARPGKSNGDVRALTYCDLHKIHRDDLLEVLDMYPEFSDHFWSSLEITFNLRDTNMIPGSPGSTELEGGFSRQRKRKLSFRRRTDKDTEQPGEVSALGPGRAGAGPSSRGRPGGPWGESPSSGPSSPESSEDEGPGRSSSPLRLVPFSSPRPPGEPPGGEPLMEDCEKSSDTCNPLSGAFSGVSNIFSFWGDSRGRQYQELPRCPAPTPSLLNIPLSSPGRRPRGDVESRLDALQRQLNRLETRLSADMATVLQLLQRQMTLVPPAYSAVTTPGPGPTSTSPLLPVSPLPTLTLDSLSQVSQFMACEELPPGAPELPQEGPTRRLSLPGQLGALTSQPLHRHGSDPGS

[4] = Apparent permeability from apical to basolateral side in human Caco2 cells; assay type: ADME, cell-based; details: Caco-2
[5] = Protein binding in rat plasma; assay type: ADME, cell-free; details: read-out: PPB (converted)
[6] = Drug level in brain of Sprague-Dawley rat at 30 mg/kg, po after 2 hrs; assay type: ADME, organism-based; details: read-out: Drug uptake
[7] = Solubility in pH 7 solution; assay type: physicochemical
[8] = Drug level in plasma of Sprague-Dawley rat at 30 mg/kg, po after 0.5 hrs; assay type: ADME, organism-based
[9] = Protein binding in rat brain; assay type: ADME, tissue-based; details: read-out: PB (converted)
[10] = Apparent permeability from basolateral to apical side in human Caco2 cells; assay type: ADME, cell-based; details: Caco-2
[11] = Drug level in brain of Sprague-Dawley rat at 30 mg/kg, po after 0.5 hrs; assay type: ADME, organism-based; details: read-out: Drug uptake
[12] = Protein binding in human plasma; assay type: ADME, cell-free; details: read-out: PPB (converted)
[13] = Drug level in plasma of Sprague-Dawley rat at 30 mg/kg, po after 2 hrs; assay type: ADME, organism-based
[14] = Drug level in brain of Sprague-Dawley rat at 10 mg/kg, sc after 0.5 hrs; details: read-out: Drug uptake
[15] = Drug level in plasma of Sprague-Dawley rat at 10 mg/kg, after 0.5 hrs
[16] = Drug level in plasma of Sprague-Dawley rat at 10 mg/kg, sc after 2 hrs
Rattus norvegicus [17] = assay: Ex-vivo P2X7 receptor occupancy in Sprague-Dawley rat brain assessed as inhibition of [3H]A804598 binding at 10 mg/kg, sc after 0.5 hrs by autoradiographic analysis
Rattus norvegicus [18] = assay: Ex-vivo P2X7 receptor occupancy in Sprague-Dawley rat brain assessed as inhibition of [3H]A804598 binding at 10 mg/kg, po after 2 hrs by autoradiographic analysis; assay type: functional

Compound: C[C@@H]1c2nnc(-c3ccccn3)n2CCN1C(=O)c1cccc(Cl)c1Cl
Occ (Rattus norvegicus [1]): 56% | Occ (Rattus norvegicus [2]): 68% | IC50 [3]: > 10 µM | Papp A→B [4]: 73.4 ×10⁻⁶ cm/s | fraction unbound [5]: 0.069 | concentration at 2 h [6]: 2500 ng/mL | solubility [7]: > 400 µM | concentration at 0.5 h [8]: 2520 ng/mL | fraction unbound [9]: 0.11 | Papp B→A [10]: 52.1 ×10⁻⁶ cm/s | concentration at 0.5 h [11]: 5510 ng/mL | fraction unbound [12]: 0.175 | concentration at 2 h [13]: 942 ng/mL

Compound: C[C@H]1Cn2c(nnc2-c2ccc(F)cc2)CN1C(=O)c1cccc(Cl)c1Cl
Occ (Rattus norvegicus [1]): 5% | Occ (Rattus norvegicus [2]): 92% | Papp A→B [4]: 43.3 ×10⁻⁶ cm/s | fraction unbound [5]: 0.078 | concentration at 2 h [6]: 142 ng/mL | solubility [7]: 158 µM (≈ 64 µg/mL) | concentration at 0.5 h [8]: 252 ng/mL | fraction unbound [9]: 0.09 | Papp B→A [10]: 41.6 ×10⁻⁶ cm/s | concentration at 0.5 h [11]: 1560 ng/mL | fraction unbound [12]: 0.115 | concentration at 2 h [13]: 27 ng/mL

Compound: C[C@H]1Cn2c(nnc2-c2ccc(F)cc2)CN1C(=O)c1cccc(C(F)(F)F)c1Cl
Occ (Rattus norvegicus [1]): 73% | Occ (Rattus norvegicus [2]): 89% | Papp A→B [4]: 37.3 ×10⁻⁶ cm/s | fraction unbound [5]: 0.078 | concentration at 2 h [6]: 12600 ng/mL | concentration at 0.5 h [8]: 1460 ng/mL | fraction unbound [9]: 0.07 | Papp B→A [10]: 53.2 ×10⁻⁶ cm/s | concentration at 0.5 h [11]: 6740 ng/mL | fraction unbound [12]: 0.131 | concentration at 2 h [13]: 2680 ng/mL

Compound: C[C@H]1Cn2c(nnc2-c2cnccn2)CN1C(=O)c1cccc(C(F)(F)F)c1Cl
fraction unbound [5]: 0.302 | fraction unbound [12]: 0.302

Continued, in another order:

fraction unbound [5]: 0.449 | fraction unbound [12]: 0.51
Compound: C[C@H]1Cn2c(nnc2-c2ccccn2)CN1C(=O)c1cccc(Cl)c1Cl

concentration at 0.5 h [14]: 3880 ng/mL | concentration at 0.5 h [15]: 1080 ng/mL | fraction unbound [5]: 0.07 | solubility [7]: 260 µM (≈ 109 µg/mL) | concentration at 2 h [16]: 374 ng/mL | fraction unbound [12]: 0.174
Compound: COc1ccnc(-c2nnc3n2C[C@H](C)N(C(=O)c2cccc(Cl)c2Cl)C3)c1
IC50 [3]: > 10 µM | Occ (Rattus norvegicus [17]): 78% | Occ (Rattus norvegicus [18]): 71%

fraction unbound [5]: 0.09 | solubility [7]: 350 µM (≈ 142 µg/mL) | fraction unbound [12]: 0.254
Compound: C[C@H]1Cn2c(nnc2-c2cc(F)ccn2)CN1C(=O)c1cccc(Cl)c1Cl
